Several values for one entry are separate records, joined by “and”; a condition that tells them apart may be missing. Identical values can stand only once. Inconclusive results are not listed.

Here are results for 10 compounds from PubChem BioAssay AID272 (DTP/NCI, 2004).

In the assay the test system is Lewis lung carcinoma i.m., BDF1 mice, T/C %. The assay can be described thus: NCI In Vivo Anticancer Drug Screen. Data for tumor model Lewis Lung Carcinoma (intramuscular) in B6D2F1 (BDF1) mice. Summed up:
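Transplantable tumour model; readout survival or tumour size; value = treated (T) / vehicle control (C).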

With `OC(C1CO1)C(O)C1CO1` (stereo not drawn), the T/C (endpoint: median survival time, dose: 1.0 mg/kg/injection, schedule: Q01DX011 (ip), vehicle: saline, higher = longer survival) was 110 % of control; the T/C (endpoint: median survival time, dose: 2.0 mg/kg/injection, schedule: Q01DX011 (ip), vehicle: saline, higher = longer survival) was 108 % of control; the T/C (endpoint: median survival time, dose: 3.0 mg/kg/injection, schedule: Q01DX011 (ip), vehicle: saline, higher = longer survival) is 114 % of control.

`[N-]=[N+]=CC(=O)CCC(N)C(=O)O` (stereo not drawn): the T/C runs as follows: (endpoint: mean tumor weight, dose: 7.5 micrograms/kg/injection, schedule: Q01DX011 (ip), vehicle: saline, higher = larger tumour) 107 % of control; (endpoint: mean tumor weight, dose: 15.0 micrograms/kg/injection, schedule: Q01DX011 (ip), vehicle: saline, higher = larger tumour) 77 % of control; (endpoint: mean tumor weight, dose: 30.0 micrograms/kg/injection, schedule: Q01DX011 (ip), vehicle: saline, higher = larger tumour) 75 % of control; (endpoint: mean tumor weight, dose: 60.0 micrograms/kg/injection, schedule: Q01DX011 (ip), vehicle: saline, higher = larger tumour) 102 % of control; (endpoint: median survival time, dose: 7.5 micrograms/kg/injection, schedule: Q01DX011 (ip), vehicle: saline, higher = longer survival) 114 % of control; (endpoint: median survival time, dose: 30.0 micrograms/kg/injection, schedule: Q01DX011 (ip), vehicle: saline, higher = longer survival) 90 % of control. For the setting “endpoint: median survival time, dose: 60.0 micrograms/kg/injection, schedule: Q01DX011 (ip), vehicle: saline, higher = longer survival”, the T/C was 90 % of control.

For the compound `O=C(O)CCCC1CCCCC1.[Cu+2]`, the T/C (endpoint: mean tumor weight (est.), dose: 6.25 mg/kg/injection, schedule: Q01DX011 (ip), vehicle: saline with Tween-80, higher = larger tumour) was 61 % of control.

Regarding `Nc1n[nH]c(N)n1`, the T/C (endpoint: mean tumor weight, dose: 125.0 mg/kg/injection, schedule: Q03HX024 (ip), vehicle: water, higher = larger tumour) was 89 % of control; the T/C (endpoint: mean tumor weight, dose: 250.0 mg/kg/injection, schedule: Q03HX024 (ip), vehicle: water, higher = larger tumour) is 81 % of control; the T/C (endpoint: mean tumor weight, dose: 750.0 mg/kg/injection, schedule: Q01DX009 (ip), vehicle: water, higher = larger tumour) was 72 % of control; the T/C (endpoint: mean tumor weight, dose: 750.0 mg/kg/injection, schedule: Q01DX011 (ip), vehicle: water, higher = larger tumour) was 68 % of control; the T/C (endpoint: median survival time, dose: 375.0 mg/kg/injection, schedule: Q01DX009 (ip), vehicle: water, higher = longer survival) was 116 % of control; the T/C (endpoint: median survival time, dose: 375.0 mg/kg/injection, schedule: Q01DX011 (ip), vehicle: water, higher = longer survival) is 110 % of control. Further, the T/C is, setting by setting: (endpoint: median survival time, dose: 750.0 mg/kg/injection, schedule: Q01DX009 (ip), vehicle: water, higher = longer survival) 124 % of control; (endpoint: median survival time, dose: 750.0 mg/kg/injection, schedule: Q01DX011 (ip), vehicle: water, higher = longer survival) 104 % of control; (endpoint: median survival time, dose: 1500.0 mg/kg/injection, schedule: Q01DX011 (ip), vehicle: water, higher = longer survival) 124 % of control.

`CN(C)C(=S)S`: the T/C is 58 % of control and 59 % of control (endpoint: mean tumor weight, dose: 125.0 mg/kg/injection, schedule: Q01DX011 (ip), vehicle: saline, higher = larger tumour); 57 % of control (endpoint: mean tumor weight, dose: 250.0 mg/kg/injection, schedule: Q01DX011 (ip), vehicle: saline, higher = larger tumour); 102 % of control (endpoint: median survival time, dose: 125.0 mg/kg/injection, schedule: Q01DX011 (ip), vehicle: saline, higher = longer survival).

In the case of `CCN(CC)CCOC(=O)c1ccccc1N(c1ccccc1)c1ccccc1`, the T/C runs as follows: (endpoint: mean tumor weight (est.), dose: 62.5 mg/kg/injection, schedule: Q01DX011 (ip), vehicle: Klucel (hydroxypropylcellulose) (HPC), higher = larger tumour) 67 % of control; (endpoint: mean tumor weight (est.), dose: 125.0 mg/kg/injection, schedule: Q01DX011 (ip), vehicle: Klucel (hydroxypropylcellulose) (HPC), higher = larger tumour) 59 % of control; (endpoint: median survival time, dose: 62.5 mg/kg/injection, schedule: Q01DX011 (ip), vehicle: Klucel (hydroxypropylcellulose) (HPC), higher = longer survival) 98 % of control.

For `COc1ccc2c(Nc3ccc(NS(C)(=O)=O)cc3)c3ccccc3nc2c1`, the T/C runs as follows: (endpoint: mean tumor weight, dose: 12.5 mg/kg/injection, schedule: Q01DX011 (ip), vehicle: saline with Tween-80, higher = larger tumour) 52 % of control; (endpoint: median survival time, dose: 12.5 mg/kg/injection, schedule: Q01DX011 (ip), vehicle: saline with Tween-80, higher = longer survival) 107 % of control.

With `CC(C)NCC(=O)c1ccc(O)c(O)c1`, the T/C was 90 % of control (endpoint: mean tumor weight (est.), dose: 42.5 mg/kg/injection, schedule: Q01DX011 (ip), vehicle: saline, higher = larger tumour); 93 % of control (endpoint: mean tumor weight (est.), dose: 85.0 mg/kg/injection, schedule: Q01DX011 (ip), vehicle: saline, higher = larger tumour); 120 % of control (endpoint: median survival time, dose: 42.5 mg/kg/injection, schedule: Q01DX011 (ip), vehicle: saline, higher = longer survival); 90 % of control (endpoint: median survival time, dose: 85.0 mg/kg/injection, schedule: Q01DX011 (ip), vehicle: saline, higher = longer survival).

As for `CN(C)/N=N/c1nc[nH]c1C(N)=O`, the T/C (endpoint: mean tumor weight, dose: 50.0 mg/kg/injection, schedule: Q01DX011 (ip), vehicle: steriod suspending solution, higher = larger tumour) is 63 % of control; the T/C (endpoint: mean tumor weight, dose: 100.0 mg/kg/injection, schedule: Q01DX011 (ip), vehicle: steriod suspending solution, higher = larger tumour) was 62 % of control; the T/C (endpoint: mean tumor weight, dose: 200.0 mg/kg/injection, schedule: Q01DX011 (ip), vehicle: steriod suspending solution, higher = larger tumour) was 44 % of control; the T/C (endpoint: median survival time, dose: 23.0 mg/kg/injection, schedule: Q01DX011 (ip), vehicle: Klucel (hydroxypropylcellulose) (HPC), higher = longer survival) was 112 % of control and 115 % of control; the T/C (endpoint: median survival time, dose: 25.0 mg/kg/injection, schedule: Q01DX009 (ip), vehicle: Klucel (hydroxypropylcellulose) (HPC), higher = longer survival) is 101 % of control; the T/C (endpoint: median survival time, dose: 39.0 mg/kg/injection, schedule: Q01DX010 (ip), vehicle: Klucel (hydroxypropylcellulose) (HPC), higher = longer survival) is 102 % of control and 104 % of control. The T/C is 108 % of control and 116 % of control (endpoint: median survival time, dose: 39.0 mg/kg/injection, schedule: Q01DX011 (ip), vehicle: Klucel (hydroxypropylcellulose) (HPC), higher = longer survival); 120 % of control (endpoint: median survival time, dose: 50.0 mg/kg/injection, schedule: Q01DX009 (ip), vehicle: Klucel (hydroxypropylcellulose) (HPC), higher = longer survival); 105 % of control (endpoint: median survival time, dose: 50.0 mg/kg/injection, schedule: Q01DX011 (ip), vehicle: steriod suspending solution, higher = longer survival); 112 % of control and 117 % of control (endpoint: median survival time, dose: 65.0 mg/kg/injection, schedule: Q01DX010 (ip), vehicle: Klucel (hydroxypropylcellulose) (HPC), higher = longer survival); 88 % of control and 93 % of control (endpoint: median survival time, dose: 65.0 mg/kg/injection, schedule: Q01DX011 (ip), vehicle: Klucel (hydroxypropylcellulose) (HPC), higher = longer survival); 123 % of control (endpoint: median survival time, dose: 100.0 mg/kg/injection, schedule: Q01DX009 (ip), vehicle: Klucel (hydroxypropylcellulose) (HPC), higher = longer survival). The T/C runs as follows: (endpoint: median survival time, dose: 100.0 mg/kg/injection, schedule: Q01DX011 (ip), vehicle: steriod suspending solution, higher = longer survival) 97 % of control; (endpoint: median survival time, dose: 108.0 mg/kg/injection, schedule: Q01DX010 (ip), vehicle: Klucel (hydroxypropylcellulose) (HPC), higher = longer survival) 88 % of control and 93 % of control; (endpoint: median survival time, dose: 108.0 mg/kg/injection, schedule: Q01DX011 (ip), vehicle: Klucel (hydroxypropylcellulose) (HPC), higher = longer survival) 75 % of control; (endpoint: median survival time, dose: 180.0 mg/kg/injection, schedule: Q01DX010 (ip), vehicle: Klucel (hydroxypropylcellulose) (HPC), higher = longer survival) 79 % of control; (endpoint: median survival time, dose: 180.0 mg/kg/injection, schedule: Q01DX011 (ip), vehicle: Klucel (hydroxypropylcellulose) (HPC), higher = longer survival) 63 % of control; (endpoint: median survival time, dose: 200.0 mg/kg/injection, schedule: Q01DX011 (ip), vehicle: steriod suspending solution, higher = longer survival) 97 % of control. Also, the T/C was 58 % of control (endpoint: median survival time, dose: 300.0 mg/kg/injection, schedule: Q01DX010 (ip), vehicle: Klucel (hydroxypropylcellulose) (HPC), higher = longer survival); 55 % of control (endpoint: median survival time, dose: 300.0 mg/kg/injection, schedule: Q01DX011 (ip), vehicle: Klucel (hydroxypropylcellulose) (HPC), higher = longer survival); 57 % of control (endpoint: median survival time, dose: 500.0 mg/kg/injection, schedule: Q01DX010 (ip), vehicle: Klucel (hydroxypropylcellulose) (HPC), higher = longer survival); 51 % of control (endpoint: median survival time, dose: 500.0 mg/kg/injection, schedule: Q01DX011 (ip), vehicle: Klucel (hydroxypropylcellulose) (HPC), higher = longer survival).

Regarding `Nc1nc2c(c(=O)[nH]1)NC(CCNc1ccc(C(=O)NC(CCC(=O)O)C(=O)O)cc1)CN2` (stereo not drawn), the T/C is 112 % of control (endpoint: mean tumor weight (est.), dose: 3.13 mg/kg/injection, schedule: Q01DX011 (ip), vehicle: other, higher = larger tumour); 81 % of control (endpoint: mean tumor weight (est.), dose: 6.25 mg/kg/injection, schedule: Q01DX011 (ip), vehicle: other, higher = larger tumour); 104 % of control (endpoint: mean tumor weight (est.), dose: 12.5 mg/kg/injection, schedule: Q01DX011 (ip), vehicle: other, higher = larger tumour); 99 % of control (endpoint: mean tumor weight (est.), dose: 25.0 mg/kg/injection, schedule: Q01DX011 (ip), vehicle: other, higher = larger tumour); 68 % of control (endpoint: mean tumor weight (est.), dose: 50.0 mg/kg/injection, schedule: Q01DX011 (ip), vehicle: other, higher = larger tumour); 63 % of control (endpoint: mean tumor weight (est.), dose: 100.0 mg/kg/injection, schedule: Q01DX011 (ip), vehicle: other, higher = larger tumour). In addition, the T/C was 100 % of control (endpoint: mean tumor weight, dose: 6.25 mg/kg/injection, schedule: Q01DX011 (ip), vehicle: other, higher = larger tumour); 101 % of control (endpoint: mean tumor weight, dose: 25.0 mg/kg/injection, schedule: Q01DX011 (ip), vehicle: other, higher = larger tumour); 78 % of control (endpoint: mean tumor weight, dose: 50.0 mg/kg/injection, schedule: Q01DX011 (ip), vehicle: other, higher = larger tumour); 68 % of control (endpoint: mean tumor weight, dose: 100.0 mg/kg/injection, schedule: Q01DX011 (ip), vehicle: other, higher = larger tumour); 94 % of control (endpoint: median survival time, dose: 6.25 mg/kg/injection, schedule: Q01DX011 (ip), vehicle: other, higher = longer survival); 103 % of control (endpoint: median survival time, dose: 12.5 mg/kg/injection, schedule: Q01DX011 (ip), vehicle: other, higher = longer survival). The T/C by setting is: (endpoint: median survival time, dose: 25.0 mg/kg/injection, schedule: Q01DX011 (ip), vehicle: other, higher = longer survival) 98 % of control; (endpoint: median survival time, dose: 100.0 mg/kg/injection, schedule: Q01DX011 (ip), vehicle: other, higher = longer survival) 108 % of control.
